In this assay the target is T1, chicken gizzard smooth muscle myosin subfragment-1 chemically crosslinked to either cardiac or skeletal actin (Gallus gallus, UniProt P10587).
T1 construct: chicken gizzard smooth muscle myosin subfragment-1
Kind of assay: Smooth muscle myosin ATPase dose response assay (pyruvate kinase/horseradish peroxidase/pyruvate oxidase-coupled). It is filed as biochemical. As to conditions: ATPase activity of crosslinked smooth muscle actomyosin (subfragment-1); amplex red fluorescence; 4 parameter fit; read-out: IC50 Arithmetic Mean. As to the method: Screening assays were performed using a pyruvate kinase and lactate dehydrogenase-coupled ATPase assay containing the following reagents: Potassium PIPES (50 mM), MgCl2 (3 mM), KCl (100 mM), ATP (0.15 mM), DTT (1 mM), BSA (0.1 mg/ml), NADH (0.5 mM), PEP (1.5 mM), pyruvate kinase (4 U/ml), lactate dehydrogenase (8 U/ml), and antifoam (50 ppm) (concentrations expressed are final assay concentrations). The pH was adjusted to 6.80 at 22 °C by addition of potassium hydroxide. Lead optimization assays were performed with a more sensitive pyruvate kinase/horseradish peroxidase/pyruvate oxidase-coupled ATPase assay containing the following reagents: Potassium PIPES (12 mM), MgCl2 (2 mM), KCl (100 mM), ATP (0.15 mM), BSA (0.05 mg/ml), potassium phosphate (2 mM), amplex red (0.1 mM), PEP (0.1 mM), pyruvate kinase (4 U/ml), horseradish peroxidase (0.5 U/ml), pyruvate oxidase (0.5 U/ml), and antifoam (50 ppm) (concentrations expressed are final assay concentrations). The pH was adjusted to 7.00 at 22 °C by addition of potassium hydroxide.
The protein components specific to this assay are chicken gizzard smooth muscle myosin subfragment-1 that has been chemically crosslinked to either cardiac or skeletal actin using an excess of 1-Ethyl-3-[3-dimethylaminopropyl]carbodiimide hydrochloride and N-hydroxysuccinimide. The exact concentration of the crosslinked smooth muscle myosin in the assay is determined empirically, by titration to achieve a desired rate of ATP hydrolysis. The concentration varies between protein preparations due to variations in the fraction of active molecules in each preparation.
Compound dose response assays are performed by first preparing a dilution series of test compound, each with an assay mixture containing potassium PIPES, MgCl2, KCl, ATP, BSA, potassium phosphate, amplex red, PEP, crosslinked smooth muscle actomyosin (subfragment-1), antifoam, and water. The assay is started by adding an equal volume of solution containing potassium Pipes, MgCl2, KCl, BSA, potassium phosphate, pyruvate kinase, horseradish peroxidase, pyruvate oxidase, antifoam, and water. ATP hydrolysis is monitored by measuring the fluorescence of amplex red (excitation at 480 nm, emission at 615 nm). The resulting dose response curve is fit by the 4 parameter equation y=Bottom+((Top-Bottom)/(1+((IC50/X)^Hill))). The IC50 is defined as the concentration at which ATPase activity is midway between the top and bottom of the dose response curve.

SMILES strings stand for the structures.

The term IC50 denotes the concentration that gives 50% inhibition.

Consider `N#Cc1cnc(NCCc2cccc(F)c2)c(C(=O)NCc2ccccn2)c1` [(5-cyano-2-{[2-(3-fluorophenyl)ethyl]amino}(3-pyridyl))-N-(2-pyridylmethyl)carboxamide], for which the IC50 turned out to be 12.7 µM.
Next, `COC/C=C/c1ccc(C(=O)NCc2cccnc2)c(NCCc2cccc(F)c2)n1` [(6-((1E)-3-methoxyprop-1-enyl)-2-{[2-(3-fluorophenyl)ethyl]amino}(3-pyridyl))-N-(3-pyridylmethyl)carboxamide]: 0.927 µM.
`C/C=C/c1nc(NCCc2cccc(F)c2)c(C(=O)NCc2cccnc2)cc1Br` [(6-((1E)prop-1-enyl)-5-bromo-2-{[2-(3-fluorophenyl)ethyl]amino}(3-pyridyl))-N-(3-pyridylmethyl)carboxamide]: the half-maximal inhibitory concentration (IC50) is 0.78 µM.
`O=C(NCc1cccnc1)c1ccc(NCc2ccncc2)nc1NCCc1cccc(F)c1` [(2-{[2-(3-fluorophenyl)ethyl]amino}-6-[(4-pyridylmethyl)amino](3-pyridyl))-N-(3-pyridylmethyl)carboxamide]: the IC50 was 34 µM.
With `CC(C)=Cc1ccc(C(=O)NCc2cccnc2)c(NCCc2cccc(F)c2)n1` [(2-{[2-(3-fluorophenyl)ethyl]amino}-6-(2-methylprop-1-enyl)(3-pyridyl))-N-(3-pyridylmethyl)carboxamide] the figure was 0.347 µM; with `CN(C)C(=O)CCCCNc1ccc(C(=O)NCc2cccnc2)c(NCCc2cccc(F)c2)n1` [5-[(6-{[2-(3-fluorophenyl)ethyl]amino}-5-[N-(3-pyridylmethyl)carbamoyl](2-pyridyl))amino]-N,N-dimethylpentanamide], 55.1 µM; with `NC(=O)CCCCNc1ccc(C(=O)NCc2cccnc2)c(NCCc2cccc(F)c2)n1` [(6-[(4-carbamoylbutyl)amino]-2-{[2-(3-fluorophenyl)ethyl]amino}(3-pyridyl))-N-(3-pyridylmethyl)carboxamide], 6.74 µM.
`CNC(=O)c1ccc(C(=O)NCc2cccnc2)c(NCCc2cccc(F)c2)n1` [(2-{[2-(3-fluorophenyl)ethyl]amino}-6-(N-methylcarbamoyl)(3-pyridyl))-N-(3-pyridylmethyl)carboxamide]: the IC50 worked out at 44.1 µM.
With `CNC(=O)CNC(=O)c1cc(-c2ccccc2)cnc1NCCc1cccc(F)c1` [2-[(2-{[2-(3-fluorophenyl)ethyl]amino}-5-phenyl(3-pyridyl))carbonylamino]-N-methylacetamide] the figure was 15 µM.
Take `C/C=C(/C)c1ccc(C(=O)NCc2cccnc2)c(NCCc2cccc(F)c2)n1` [(6-((1Z)-1-methylprop-1-enyl)-2-{[2-(3-fluorophenyl)ethyl]amino}(3-pyridyl))-N-(3-pyridylmethyl)carboxamide]: the IC50 was 10.5 µM.
Next, `COC(=O)/C=C(\C)c1ccc(C(=O)NCc2cccnc2)c(NCCc2cccc(F)c2)n1` [methyl (2E)-3-(6-{[2-(3-fluorophenyl)ethyl]amino}-5-[N-(3-pyridylmethyl)carbamoyl](2-pyridyl))but-2-enoate]: 3.45 µM; `O=C(CCCCNc1ccc(C(=O)NCc2cccnc2)c(NCCc2cccc(F)c2)n1)NCc1cccnc1` [5-[(6-{[2-(3-fluorophenyl)ethyl]amino}-5-[N-(3-pyridylmethyl)carbamoyl](2-pyridyl))amino]-N-(3-pyridylmethyl)pentanamide]: 49.2 µM; `C=C(OCC)c1ccc(C(=O)NCc2cccnc2)c(NCCc2cccc(F)c2)n1` [(6-(1-ethoxyvinyl)-2-{[2-(3-fluorophenyl)ethyl]amino}(3-pyridyl))-N-(3-pyridylmethyl)carboxamide]: 0.702 µM.
With `CNC(=O)CCCCNc1ccc(C(=O)NCc2cccnc2)c(NCCc2cccc(F)c2)n1` [5-[(6-{[2-(3-fluorophenyl)ethyl]amino}-5-[N-(3-pyridylmethyl)carbamoyl](2-pyridyl))amino]-N-methylpentanamide] the figure was 38 µM; with `COC(=O)c1ccc(C(=O)NCc2cccnc2)c(NCCc2cccc(F)c2)n1` [methyl 6-{[2-(3-fluorophenyl)ethyl]amino}-5-[N-(3-pyridylmethyl)carbamoyl]pyridine-2-carboxylate], 4.35 µM; with `NCc1cccc(CNC(=O)c2cc(-c3cccnc3)cnc2NCCc2cccc(F)c2)n1` [N-{[6-(aminomethyl)(2-pyridyl)]methyl}(2-{[2-(3-fluorophenyl)ethyl]amino}-5-(3-pyridyl)(3-pyridyl))carboxamide], 7.39 µM.
Take `COCCCNc1ccc(C(=O)NCc2cccnc2)c(NCCc2cccc(F)c2)n1` [(2-{[2-(3-fluorophenyl)ethyl]amino}-6-[(3-methoxypropyl)amino](3-pyridyl))-N-(3-pyridylmethyl)carboxamide]: the IC50 came out at 11 µM.
Next, `N=C(N)c1ccc(C(=O)NCc2cccnc2)c(NCCc2cccc(F)c2)n1` [6-{[2-(3-fluorophenyl)ethyl]amino}-5-[N-(3-pyridylmethyl)carbamoyl]pyridine-2-carboxamidine]: 6.62 µM.
With `CN(C)C(=N)c1ccc(C(=O)NCc2cccnc2)c(NCCc2cccc(F)c2)n1` [(6-[(dimethylamino)iminomethyl]-2-{[2-(3-fluorophenyl)ethyl]amino}(3-pyridyl))-N-(3-pyridylmethyl)carboxamide] the figure was 17.3 µM.
Next, `O=C(NCc1cccnc1)c1cccnc1NCCc1cccc(F)c1` [(2-{[2-(3-fluorophenyl)ethyl]amino}(3-pyridyl))-N-(3-pyridylmethyl)carboxamide]: 26.8 µM.
On to `CN(C)c1ccc(C(=O)NCc2cccnc2)c(NCCc2cccc(F)c2)n1` [(6-(dimethylamino)-2-{[2-(3-fluorophenyl)ethyl]amino}(3-pyridyl))-N-(3-pyridylmethyl)carboxamide], for which the half-maximal inhibitory concentration (IC50) turned out to be 4.92 µM.
With `N#Cc1ccccc1-c1cnc(NCCc2cccc(F)c2)c(C(=O)NCc2cccc(CN)n2)c1` [N-{[6-(aminomethyl)(2-pyridyl)]methyl}(5-(2-cyanophenyl)-2-{[2-(3-fluorophenyl)ethyl]amino}(3-pyridyl))carboxamide] the figure was 6.03 µM.
For the molecule `CNc1ccc(C(=O)NCc2cccnc2)c(NCCc2cccc(F)c2)n1` [(2-{[2-(3-fluorophenyl)ethyl]amino}-6-(methylamino)(3-pyridyl))-N-(3-pyridylmethyl)carboxamide], the concentration for half-maximal inhibition (IC50) amounted to 10.9 µM.
With `CN(CCO)c1ccc(C(=O)NCc2cccnc2)c(NCCc2cccc(F)c2)n1` [(2-{[2-(3-fluorophenyl)ethyl]amino}-6-[(2-hydroxyethyl)methylamino](3-pyridyl))-N-(3-pyridylmethyl)carboxamide] the figure was 45.4 µM; with `CNC(=O)CNC(=O)c1cc(-c2ccccc2C#N)cnc1NCCc1cccc(F)c1` [2-[(5-(2-cyanophenyl)-2-{[2-(3-fluorophenyl)ethyl]amino}(3-pyridyl))carbonylamino]-N-methylacetamide], 18 µM; with `O=C(NCc1ccccn1)c1cc(Br)c(Cl)nc1NCCc1cccc(F)c1` [(5-bromo-6-chloro-2-{[2-(3-fluorophenyl)ethyl]amino}(3-pyridyl))-N-(2-pyridylmethyl)carboxamide], 17.3 µM.
With `NCc1cccc(CNC(=O)c2cc(-c3ccncc3)cnc2NCCc2cccc(F)c2)n1` [N-{[6-(aminomethyl)(2-pyridyl)]methyl}(2-{[2-(3-fluorophenyl)ethyl]amino}-5-(4-pyridyl)(3-pyridyl))carboxamide] the figure was 9.84 µM.
Turning to `O=C(NCc1cccc(CN2C(=O)c3ccccc3C2=O)n1)c1cc(Br)cnc1NCCc1cccc(F)c1` [N-({6-[(1,3-dioxobenzo[c]azolin-2-yl)methyl](2-pyridyl)}methyl)(5-bromo-2-{[2-(3-fluorophenyl)ethyl]amino}(3-pyridyl))carboxamide], the 50% inhibitory concentration (IC50) was determined as 9.72 µM.
Take `NCc1cccc(CNC(=O)c2cc(-c3ccccn3)cnc2NCCc2cccc(F)c2)n1` [N-{[6-(aminomethyl)(2-pyridyl)]methyl}(2-{[2-(3-fluorophenyl)ethyl]amino}-5-(2-pyridyl)(3-pyridyl))carboxamide]: the half-maximal inhibitory concentration (IC50) stood at 16 µM.
Take `NCc1ncccc1CNC(=O)c1cc(F)cnc1NCCc1cccc(F)c1` [N-{[2-(aminomethyl)(3-pyridyl)]methyl}(5-fluoro-2-{[2-(3-fluorophenyl)ethyl]amino}(3-pyridyl))carboxamide]: the IC50 came out at 2.69 µM.

These data come from US7939548B2, “Certain chemical entities, compositions, and methods” (Cytokinetics, Inc., priority 2006, dated 2011).
